# Read-outs that look alike come from different tables or passages of the source.
# Columns and labels:
# human M1 receptor = biological target: T1, human M1 receptor (Homo sapiens, UniProt P11229); test: HTRF IP-One curve shift assay, M1; format: cell-based
# T1 construct: expressed in transfected cells
# T1 sequence (P11229 1-460): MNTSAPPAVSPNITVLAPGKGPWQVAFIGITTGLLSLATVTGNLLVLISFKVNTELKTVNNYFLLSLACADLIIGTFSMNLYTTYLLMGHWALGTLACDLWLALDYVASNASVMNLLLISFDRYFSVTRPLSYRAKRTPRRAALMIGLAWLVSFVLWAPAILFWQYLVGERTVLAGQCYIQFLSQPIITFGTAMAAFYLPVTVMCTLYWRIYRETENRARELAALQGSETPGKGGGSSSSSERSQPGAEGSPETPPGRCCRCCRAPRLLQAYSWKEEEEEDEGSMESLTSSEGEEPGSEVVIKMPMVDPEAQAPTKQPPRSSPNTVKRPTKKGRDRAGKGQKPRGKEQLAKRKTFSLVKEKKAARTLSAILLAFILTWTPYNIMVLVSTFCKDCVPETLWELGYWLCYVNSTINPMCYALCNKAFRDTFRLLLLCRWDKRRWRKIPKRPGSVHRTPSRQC
# Experimental: (§1) HTRF IP-One assays were performed using frozen cell aliquots prepared from CHO-K1 cell lines stably expressing human M1, M3, or M5 receptors. Cells were frozen following typical cell freezing protocols. […] Dissociated cells were quenched in full media and collected by centrifugation at 290×g for 5 min. […] 1 mL aliquots of cells were dispensed into cryovial tubes and frozen in a controlled rate cryo-freezer container at −80° C. Cells were stored at −80° C. (or in liquid nitrogen if stored for at least six months) until the day of the assay.
# (§2) On the day before the assay, frozen cells were rapidly thawed in a 37° C. water bath, brought up in 20 mL of full media, and collected via centrifugation at 290×g for 5 min. […] Next, […] of cells (10,000 cells/well) were dispensed into 384-well coming plates in triplicate. Cells were incubated overnight in a 37° C., 5% CO2 cell incubator.
# (§3) Then, 2 μL of test compounds were added to the cells and incubated for 10 min at 37° C. in a 5% CO2 cell incubator. Next, 2 μL of diluted agonists serially diluted in assay buffer at 7× final assay concentration was added to assay plates. Finally, assay plates were incubated for two hours at 37° C. in a 5% CO2 cell incubator.
# (§4) Six μL of IP-1 detection reagents (IP-One Gq HTRF kit, Cisbio Cat #62IPAPEJ) were dispensed to the cells. First, the plates were incubated for two hours at room temperature (IP-One detection reagents were made according to Cisbio protocol). Then, plates were read on an Envision plate reader following the Cisbio guidelines.
# (§5) Raw data for all assays was transmitted directly from plate readers into the Beacon database for processing. All assay plates contained positive and negative control wells for data normalization and scaling. […] All control wells contained DMSO at a final assay concentration that matched the test compound wells.
# (§6) Counts from the standard curve wells were used to generate a sigmoidal standard curve, which was used to transform the raw counts from each well on the plate (scaling control wells and compound wells) into a pmol/well IP1 value.
# human M5 receptor = biological target: T2, human M5 receptor (Homo sapiens, UniProt P08912); test: HTRF IP-One curve shift assay, M5; format: cell-based; settings: M5
# T2 construct: expressed in transfected cells
# T2 sequence (P08912 1-532): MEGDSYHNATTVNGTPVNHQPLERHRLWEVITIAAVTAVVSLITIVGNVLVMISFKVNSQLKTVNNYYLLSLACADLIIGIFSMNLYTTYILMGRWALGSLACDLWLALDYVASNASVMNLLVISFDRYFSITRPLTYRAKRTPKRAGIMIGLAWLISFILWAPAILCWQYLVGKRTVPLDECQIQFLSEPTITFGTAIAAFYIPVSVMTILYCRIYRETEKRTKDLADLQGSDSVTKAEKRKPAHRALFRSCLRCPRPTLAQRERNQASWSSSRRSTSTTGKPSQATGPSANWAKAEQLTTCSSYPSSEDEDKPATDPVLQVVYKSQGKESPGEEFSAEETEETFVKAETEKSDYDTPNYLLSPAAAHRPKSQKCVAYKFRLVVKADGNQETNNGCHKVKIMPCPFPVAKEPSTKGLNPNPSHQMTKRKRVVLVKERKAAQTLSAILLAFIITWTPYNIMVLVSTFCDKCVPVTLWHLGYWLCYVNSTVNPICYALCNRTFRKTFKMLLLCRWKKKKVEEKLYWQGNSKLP
# Experimental: as §1, §2, §3, §4, §5, §6
# [1] = Emraclidine concentration 41.2 nM, read-out: Emax
# [2] = Emraclidine concentration 123 nM, read-out: Emax
# [3] = Emraclidine concentration 370 nM
# [4] = Emraclidine concentration 1110 nM, read-out: Emax
# [5] = Emraclidine concentration 3330 nM, read-out: Emax
# [6] = MK-4710 concentration 41.2 nM, read-out: Emax
# [7] = MK-4710 concentration 123 nM, read-out: Emax
# [8] = MK-4710 concentration 1110 nM, read-out: Emax
# [9] = MK-4710 concentration 3330 nM, read-out: Emax
# [10] = Emraclidine concentration 370 nM, read-out: Emax
# [11] = Emraclidine concentration […], read-out: Emax
# [12] = MK-4710 concentration 370 nM, read-out: Emax
# [13] = MK-4710 concentration […], read-out: Emax
smiles,measurement,setting,value
"CCCCCCCOc1nsnc1C1=CCCCN1C [KTX-593, 3-(heptyloxy)-4-(1-methyl-1,4,5,6-tetrahydropyridin-2-yl)-1,2,5-thiadiazole]",EC50,human M1 receptor; Emraclidine concentration 0 nM,10.1 nM
same,Emax,human M1 receptor; Emraclidine concentration 0 nM,77.8%
same,Emax,human M1 receptor; [1],83.1%
same,Emax,human M1 receptor; [2],85.4%
same,Emax at […],human M1 receptor; [3],88.4%
same,Emax,human M1 receptor; [4],85.2%
same,Emax,human M1 receptor; [5],87.8%
same,Emax at […],human M1 receptor; Emraclidine concentration […],83.9%
same,"α (cooperativity, affinity shift)",human M1 receptor; M4 PAM Emraclidine,3.2
same,"β (cooperativity, efficacy shift)",human M1 receptor; M4 PAM Emraclidine,0.8
same,τ (agonist pharmacology),human M1 receptor; M4 PAM Emraclidine,0.0
same,"α (cooperativity, affinity shift)",human M1 receptor; M4 PAM MK-4710,4.1
same,"β (cooperativity, efficacy shift)",human M1 receptor; M4 PAM MK-4710,0.6
same,τ (agonist pharmacology),human M1 receptor; M4 PAM MK-4710,0.0
same,EC50,human M1 receptor; MK-4710 concentration 0 nM,8.7 nM
same,Emax,human M1 receptor; MK-4710 concentration 0 nM,83.7%
same,EC50,human M1 receptor; MK-4710 concentration 41.2 nM,7.6 nM
same,Emax,human M1 receptor; [6],82.7%
same,EC50,human M1 receptor; MK-4710 concentration 123 nM,8.3 nM
same,Emax,human M1 receptor; [7],79.9%
same,EC50,human M1 receptor; MK-4710 concentration 370 nM,6.5 nM
same,Emax at […],human M1 receptor; MK-4710 concentration 370 nM,78.3%
same,EC50,human M1 receptor; MK-4710 concentration 1110 nM,6.8 nM
same,Emax,human M1 receptor; [8],76.8%
same,EC50,human M1 receptor; MK-4710 concentration 3330 nM,5.3 nM
same,Emax,human M1 receptor; [9],76.7%
same,EC50,human M1 receptor; MK-4710 concentration […],8.8 nM
same,Emax at […],human M1 receptor; MK-4710 concentration […],77.6%
same,EC50,human M5 receptor; Emraclidine concentration 0 nM,403 nM
same,Emax,human M5 receptor; Emraclidine concentration 0 nM,63.6%
same,Emax,human M5 receptor; [1],71.8%
same,Emax,human M5 receptor; [2],68.8%
same,Emax at […],human M5 receptor; [10],67.4%
same,Emax,human M5 receptor; [4],66.9%
same,Emax,human M5 receptor; [5],71.9%
same,Emax at […],human M5 receptor; [11],67.1%
same,"α (cooperativity, affinity shift)",human M5 receptor; M4 PAM Emraclidine,10.6
same,"β (cooperativity, efficacy shift)",human M5 receptor; M4 PAM Emraclidine,1.1
same,τ (agonist pharmacology),human M5 receptor; M4 PAM Emraclidine,0.0
same,"α (cooperativity, affinity shift)",human M5 receptor; M4 PAM MK-4710,1.4
same,"β (cooperativity, efficacy shift)",human M5 receptor; M4 PAM MK-4710,0.8
same,τ (agonist pharmacology),human M5 receptor; M4 PAM MK-4710,0.1
same,EC50,human M5 receptor; MK-4710 concentration 0 nM,245 nM
same,Emax,human M5 receptor; MK-4710 concentration 0 nM,81.82%
same,Emax,human M5 receptor; [6],78.3%
same,Emax,human M5 receptor; [7],78.8%
same,Emax at […],human M5 receptor; [12],76.6%
same,Emax,human M5 receptor; [8],69.7%
same,Emax,human M5 receptor; [9],77.3%
same,Emax at […],human M5 receptor; [13],69.7%
"CC1OC2(CS1)CN1CCC2CC1 (stereo not shown) [cevimeline, Cevimeline, reference compound]",EC50,human M1 receptor; Emraclidine concentration 0 nM,1190 nM
same,Emax,human M1 receptor; Emraclidine concentration 0 nM,73.6%
same,Emax,human M1 receptor; [1],81.4%
same,Emax,human M1 receptor; [2],90.4%
same,Emax at […],human M1 receptor; [3],95.1%
same,Emax,human M1 receptor; [4],100%
same,Emax,human M1 receptor; [5],103%
same,Emax at […],human M1 receptor; Emraclidine concentration […],73.2%
same,"α (cooperativity, affinity shift)",human M1 receptor; M4 PAM Emraclidine,1.0
same,"β (cooperativity, efficacy shift)",human M1 receptor; M4 PAM Emraclidine,1.2
same,τ (agonist pharmacology),human M1 receptor; M4 PAM Emraclidine,0.0
same,"α (cooperativity, affinity shift)",human M1 receptor; M4 PAM MK-4710,3.0
same,"β (cooperativity, efficacy shift)",human M1 receptor; M4 PAM MK-4710,0.5
same,τ (agonist pharmacology),human M1 receptor; M4 PAM MK-4710,0.0
same,EC50,human M1 receptor; MK-4710 concentration 0 nM,1750 nM
same,Emax,human M1 receptor; MK-4710 concentration 0 nM,86.1%
same,Emax,human M1 receptor; [6],102%
same,Emax,human M1 receptor; [7],97.1%
same,Emax at […],human M1 receptor; MK-4710 concentration 370 nM,92.3%
same,Emax,human M1 receptor; [8],83.6%
same,Emax,human M1 receptor; [9],69.9%
same,Emax at […],human M1 receptor; MK-4710 concentration […],88.8%
same,EC50,human M5 receptor; Emraclidine concentration 0 nM,1370 nM
same,Emax,human M5 receptor; Emraclidine concentration 0 nM,90.54%
same,Emax,human M5 receptor; [1],92.7%
same,Emax,human M5 receptor; [2],93.5%
same,Emax at […],human M5 receptor; [10],105%
same,Emax,human M5 receptor; [4],103%
same,Emax,human M5 receptor; [5],106%
same,Emax at […],human M5 receptor; [11],102%
same,"α (cooperativity, affinity shift)",human M5 receptor; M4 PAM Emraclidine,1.0
same,"β (cooperativity, efficacy shift)",human M5 receptor; M4 PAM Emraclidine,0.5
same,τ (agonist pharmacology),human M5 receptor; M4 PAM Emraclidine,0.1
same,"α (cooperativity, affinity shift)",human M5 receptor; M4 PAM MK-4710,1.0
same,"β (cooperativity, efficacy shift)",human M5 receptor; M4 PAM MK-4710,1.4
same,τ (agonist pharmacology),human M5 receptor; M4 PAM MK-4710,0.1
same,EC50,human M5 receptor; MK-4710 concentration 0 nM,3720 nM
same,Emax,human M5 receptor; MK-4710 concentration 0 nM,70.31%
same,Emax,human M5 receptor; [6],95.2%
same,Emax,human M5 receptor; [7],88.2%
same,Emax at […],human M5 receptor; [12],91.1%
same,Emax,human M5 receptor; [8],78.3%
same,Emax,human M5 receptor; [9],91.2%
same,Emax at […],human M5 receptor; [13],97.3%

# Source: US20250228832A1, “METHODS FOR TREATING DISORDERS AMELIORATED BY MUSCARINIC RECEPTOR ACTIVATION” (KARUNA THERAPEUTICS, INC., priority 2022, published 2025)
